Experimental data: patent US20110294794A1, “TREATMENT OF PROTEINOPATHIES USING A FARNESYL TRANSFERASE INHIBITOR” (Link Medicine Corporation, priority 2008, published 2011)
Entries after “also recorded” stand apart in the source; their conditions may differ. Like-named read-outs stand apart in the source and are kept apart here.

Key:
α-synuclein = assay: Masliah D-line human WT α-synuclein transgenic mouse, α-synuclein immunoreactivity / ELISA; assay type: in vivo; details: for number of α-synuclein positive neurons: lower-dose trial (FIG. 2B); for levels of α-synuclein in the hippocampus / α-synuclein inclusions vs. transgenic animals administered vehicle alone: α-synuclein transgenic mice
Procedure: Animals and treatments: Male and female human WT alpha-synuclein over-expressing transgenic mice^32 at 6 months of age were given vehicle (10% beta-cyclodextrin) or LNK-754-TS (0.09, 0.9 and 9 mg/kg) per oral gavage twice daily for 3 months or animals at 7 months of age were given vehicle (2.5% beta-cyclodextrin) or LNK-754-TS (2 mg/kg) once every three days for 3 months. Male and female TAU transgenic mice expressing TAU441 bearing the missense mutations V337M^50 and R406W under the control of the murine Thy-1 promoter with a CB6xC57BL/6 background were 5 months old at the time when the oral treatment for three months with LNK-754-TS (0.9 and 0.09 mg/kg) as well as vehicle (2.5% beta-cyclodextrin) was started. Female human APP/PS1 (APP (London V7171)/PS1(A246E)) over-expressing transgenic mice were treated with LNK-754-TS (0.9 mg/kg) or vehicle (2.5% beta-cyclodextrin) for 2 months or 12 days.
Immunohistochemistry and quantification of stained cells: For evaluation of α-synuclein immunoreactivity (IR), 5 sagittal cryo-cut sections (10 μm slice thickness) from five different layers were used for counting of IR cells in the cortex and hippocampus. Brain sections were stained with a monoclonal human α-synuclein specific antibody (Alexis®; Cat# 804-258-L001; dilution 1:5), followed by a secondary Ab Cy 2-Goat Anti-Rat (Jackson ImmunoResearch®; dilution 1:200). IR positive cells were quantified using specialized image analysis software (Image Pro Plus, version 4.5.1.29). For Tau transgenic animals, 5 μm thick coronal paraffin sections were stained with the monoclonal mouse anti-human TAU-antibodies (AT180—1:100; HT—1:500) and visualized using an anti-mouse Cy3 secondary antibody (1:500, Jackson laboratories®). Images were evaluated with ImageProPlus (version 6.2) image analysis software. For APP/PS1 transgenic animals sagittal hemisections (40 μm) were collected and processed for Aβ immunohistochemistry using an 6E10 antibody, Thioflavin-S staining Primary antibodies were detected by the ABC method.
ELISA quantification of α-Synuclein in the α-Synuclein transgenic animals: Brain homogenate was centrifuged and the supernatant saved as fraction F1. The pellet was washed then resuspended and saved as fraction F2. Plates (Nunc, 464718) were coated with SYN-1 (1:1000, BD Transduction Labs, 610787). Monomeric recombinant α-synuclein was included as an internal standard. Biotinylated antibody FL-140 (1:300, Santa Cruz Biotechnology, sc-10717-B) and ExtrAvidin-Alkaline phosphatase (3:5000, Sigma, E2636) was added followed by pNPP substrate solution (Sigma, N1891). Raw absorbance (405 nm) was then normalized to the total protein concentration of each sample. In the APP/PS1 transgenic animal, brains were homogenized and the supernatant, Faction 1, was separated from the pellet. The pellets were further processed with addition of NP40 and Triton X-100. The supernatant was separated from the pellet as the insoluble membrane, Fraction 2, and was dissolved in 8M Guanidine. To quantify the amount of human Aβ-40 and Aβ-42, ELISA kits were used (The Genetics Company, Zurich, Switzerland).
In FIG. 2 is shown efficacy data for LNK-754-TS in the Masliah D-line transgenic α-synuclein mouse (an accepted model of synucleinopathies). Two trials are shown, the first (FIG. 2A) at higher doses of LNK-754-TS: 45 mg/kg and 9 mg/kg. […] The second trial (FIG. 2B) explores the low dose range for efficacy in the α-synuclein models. […]
After dosing with LNK-754-TS for three months (twice daily at 0.09 mg/kg or 0.9 mg/kg), α-synuclein accumulation in the brain was analyzed by immunohistochemical (human specific α-synuclein immunoreactivity) and biochemical (α-synuclein ELISA) means. […]

GGTase [1] = biological target: T1, GGTase (Homo sapiens, UniProt P49354+P53609); assay: In vitro GGTase inhibition by LNK-754 (Table 5A); assay type: biochemical; details: general statement
From the text: (§1) The selectivity of LNK-754 for FTase over GGTAse is shown below in Table 5A.

GGTase [2] = assay: In vitro GGTase inhibition by LNK-754 (Table 5A); assay type: biochemical
From the text: as §1

[3] = system: 3T3 H-ras (61L) xenograft tumor; details: continuous infusion, cited from earlier work
[4] = Pharmacokinetics of Zarnestra in C57BL/6 mice, oral administration; assay type: in vivo, mouse; details: 5 mg/kg p.o. single dose
Procedure: LLOQ: brain 4 ng/g; plasma 50 ng/ml.
The pharmacokinetic profiles of LNK-754-TS and Zarnestra® were analyzed using methods known in the art. The results are shown in FIGS. 13-14 and the tables below.

LC3 mRNA = LC3 mRNA (qPCR) in differentiated SH-SY5Y cells; assay type: cell-based, human; details: 100 nM, 72 hr
Procedure: (§2) Cell culture and immunocytochemistry: SH-SY5Y cells were grown in DMEM medium supplemented with 10% FBS and 1% pen/strep at 37° C. and 5% CO2. Cells were differentiated with 10 μM retinoic acid for 48 hr, then treated with the either rapamycin (100 nM or 1 μM) or with 100 nM of either LNK-754-TS or Tipifarnib for 48-72 hr. Cells were then fixed with 4% paraformaldehyde and stained for LC3 (Novus biological, NB100-2331, dilution 1:800) followed by secondary Alexa-564 anti-Rabbit (A-11011).
(§3) Quantitative real-time PCR: Gene expression profiles were done by qPCR on series of known autophagy genes. RNA was extracted with Tri-reagent (Sigma), and cDNAs generated using iScript (Biorad). qPCR analysis was carried out in a 96 well plate using an iCycler (BioRad, Hercules, Calif.), and iQ SYBR Green Supermix (Biorad) according to the manufacturer's specifications.
Such increases in LC3 mRNA levels are associated in the literature with stimulation of macroautophagy. This supports the hypothesis that at doses as low as 1 nM in this in vitro system there is stimulation of autophagy in these cells.
(§4) Autophagy was measured in a neuroblastoma cell culture system by three distinct approaches: quantitation of autophagy-related mRNA's, immunofluorescence microscopy of autophagosomes, and biochemical detection of the microtubule-associated protein 1 light chain 3 (LC3) a key protein that is required for autophagosome formation. Differentiated human neuroblastoma cells (SH-SY5Y) were treated for 72 hr with LNK-754-TS (0.01-100 nM), Zarnestra® (also referred to herein as tipifarnib) (100 nM) or rapamycin (1 μM).

LC3 = assay: Punctate LC3 immunostaining in SH-SY5Y cells; assay type: cell-based, human; details: 100 nM (FIG. 8b)
Procedure: as §2, §4

Atg1 = assay: mRNA levels of autophagy-related genes (Atg1) in SH-SY5Y cells; assay type: cell-based, human; details: 100 nM (FIG. 8d)
Procedure: as §3
(§5) The mechanism of autophagy stimulation by LNK-754-TS appears distinct from that of the drug rapamycin. Rapamycin is a well-characterized autophagy stimulator that acts through inhibition of mTOR, a kinase involved in nutrient signaling and regulation of cell growth and survival. […] To further contrast the mechanism of autophagy stimulation by LNK-754-TS to that of rapamycin, a collection of mRNA transcripts of autophagy proteins were measured (FIG. 8d). Selected mRNAs from untreated SH-SY5Y cells were compared to mRNAs from cells treated with LNK-754-TS (100 nM), tipifarnib (100 nM), or rapamycin (1 μM).

GGTase [5] = biological target: T1, GGTase; details: general statement; cited from earlier work
LC3-II = LC3-II protein level (autophagic flux) in SH-SY5Y cells with or without bafilomycin A1; assay type: cell-based, human; details: bafilomycin A1 (10 nM) alone, without test compound
From the text: Data are represented as mean+/−SEM with statistical significance by paired student's t-test (n=4, p<0.05).
The observed increase in LC3-positive autophagosomes could result, in principle, from either an increased flux through the autophagy pathway or decreased autophagosome degradation (Pankiv, S., et al. J Biol Chem 282, 24131-24145 (2007); Kamada, Y., et al. J Cell Biol 150, 1507-1513 (2000)). […] In order to ascertain an increase in autophagic flux, cells were co-treated with LNK-754-TS and an inhibitor of autophagosome-lysosome fusion, bafilomycin A1 (10 nM). Bafilomycin treatment alone caused a 100% increase in the amount of LC3-II, consistent with the fact that it inhibits autophagosome degradation (FIG. 8c).
as §5

C#Cc1cccc(-c2cc(=O)n(C)c3ccc([C@](O)(c4ccc(Cl)cc4)c4cncn4C)cc23)c1 [LNK-754, (R)-6-[(4-chlorophenyl)-hydroxyl-(1-methyl-1-H-imidazol-5-yl)-methyl]-4-(3-ethynylphenyl)-1-methyl-2-(1H)-quinonlinone]
number of α-synuclein positive neurons (α-synuclein; 0.09 mg/kg): significantly lowered
number of α-synuclein positive neurons (α-synuclein; 0.9 mg/kg): significantly lowered
number of α-synuclein positive neurons in the brain (α-synuclein; 9 mg/kg PO BID 3 months, higher-dose trial (FIG. 2A)): significantly lower
number of α-synuclein positive neurons in the brain (α-synuclein; 45 mg/kg PO BID 3 months, higher-dose trial (FIG. 2A)): did not significantly lower; also recorded: not found to significantly lower
number of α-synuclein positive neurons in the brain (α-synuclein; lower doses, 0.09 mg/kg to 9 mg/kg (FIGS. 2A and 2B)): significant reduction
levels of α-synuclein in the hippocampus (α-synuclein): decrease
α-synuclein inclusions vs. transgenic animals administered vehicle alone (α-synuclein): fewer
GGTase inhibitory activity (GGTase [1]): little to no
GGTI/FTI (GGTase [2]; H-Ras substrates): 580
GGTI/FTI (GGTase [2]; K-Ras substrates): 40.11
continuous serum level at which significant inhibition of tumor growth was seen ([3]; 7 day treatment): above 100 ng/mL
inhibition of Ras farnesylation at which significant inhibition of tumor growth was seen ([3]; tumor tissue): at least 50%

Cn1cncc1[C@@](N)(c1ccc(Cl)cc1)c1ccc2c(c1)c(-c1cccc(Cl)c1)cc(=O)n2C [Zarnestra®, (R)-6-(Amino(4-chlorophenyl)(1-methyl-1H-imidazol-5-yl)methyl)-4-(3-chlorophenyl)-1-methyl-2(1H)-quinolinone, reference compound]
levels of α-synuclein in the hippocampus (α-synuclein): decrease
α-synuclein inclusions vs. transgenic animals administered vehicle alone (α-synuclein): fewer
t1/2z ([4]; Blood): 1.31 h
AUC(0-t) ([4]; Brain): 44.50 ng·h/g
AUC(0-[…]) ([4]; Brain): 86.86 ng·h/g
t1/2z ([4]; Brain): 8.10 h
LC3 mRNA level (LC3 mRNA): also works; also recorded: upregulated
LC3 mRNA level (LC3 mRNA; listed as tipifarnib): increased
punctate LC3 immunostaining (number of LC3-positive puncta) (LC3): distinct increase
punctate LC3 immunostaining (number of LC3-positive puncta) (LC3; listed as tipifarnib): increased
mRNA levels of a set of autophagy-related genes (Atg1): unaffected
GGTase inhibitory activity (GGTase [5]): little to no

CO/C1=C\C(C)=C\[C@@H](C)[C@@H](O)[C@@H](C)C/C(C)=C/C=C/[C@H](OC)[C@@H]([C@@H](C)[C@@H](O)[C@H](C)[C@@]2(O)C[C@@H](O)[C@H](C)[C@@H](C(C)C)O2)OC1=O [bafilomycin A1, reference compound]
increase in the amount of LC3-II (LC3-II): 100%
